Experimental data as given in patent publication US20230192700A1, “PYRAZOLOPYRAZINES ACTING ON CANCERS VIA INHIBITION OF CDK12” (Bayer Aktiengesellschaft, priority 2020, published 2023).

Assays:
[1] = target: T1, CDK12/CyclinK (Homo sapiens, UniProt Q9NYV4); assay: CDK12/CycK high ATP kinase assay (TR-FRET); assay type: biochemical; conditions: 2 mM ATP (high ATP); median; read-out: CDK12/CyclinK, 2 mM ATP (high ATP), IC50 - [mol/l] (median)
T1 construct: His-CDK12 (aa Q696-S1082); made in house; host or cells: Hi-5 insect cells (baculovirus co-infection with CycK and yeast CAK1)
T1 sequence (Q9NYV4 with tags, fused parts or gaps): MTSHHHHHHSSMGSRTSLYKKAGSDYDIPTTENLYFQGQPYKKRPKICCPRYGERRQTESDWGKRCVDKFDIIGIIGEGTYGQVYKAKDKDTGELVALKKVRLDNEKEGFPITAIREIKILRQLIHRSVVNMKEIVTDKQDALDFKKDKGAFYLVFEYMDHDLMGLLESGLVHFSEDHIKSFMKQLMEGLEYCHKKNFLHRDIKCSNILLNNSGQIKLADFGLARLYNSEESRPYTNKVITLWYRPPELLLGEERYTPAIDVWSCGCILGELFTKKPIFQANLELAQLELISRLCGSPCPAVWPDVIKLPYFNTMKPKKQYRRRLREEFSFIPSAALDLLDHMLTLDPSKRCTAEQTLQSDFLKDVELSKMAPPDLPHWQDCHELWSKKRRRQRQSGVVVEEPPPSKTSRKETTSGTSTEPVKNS
T1 sequence (O75909 with tags, fused parts or gaps partner limits assumed): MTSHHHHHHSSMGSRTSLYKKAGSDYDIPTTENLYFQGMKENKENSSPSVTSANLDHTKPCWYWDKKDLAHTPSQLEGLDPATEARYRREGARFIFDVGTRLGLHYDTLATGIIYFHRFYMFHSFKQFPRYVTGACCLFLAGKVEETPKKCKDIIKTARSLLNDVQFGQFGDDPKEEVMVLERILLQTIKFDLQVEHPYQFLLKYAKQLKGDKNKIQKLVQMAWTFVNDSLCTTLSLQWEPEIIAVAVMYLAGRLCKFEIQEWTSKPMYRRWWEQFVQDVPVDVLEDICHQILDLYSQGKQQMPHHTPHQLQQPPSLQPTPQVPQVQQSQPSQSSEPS
Excerpt: 2.2 CDK12/CycK high ATP Kinase Assay
In the context of the present invention, the term “IC50 CDK12 hATP” refers to the ICso values obtained according to the assay described in this section (2.2) herein below, i.e. the IC50 values for the inhibition of CDK12 at high ATP.
CDK12/CycK -inhibitory activity of compounds of the present invention at 2 millimol/L adenosine-tri-phosphate (ATP) was quantified employing the TR-FRET (TR-FRET=Time Resolved Fluorescence Energy Transfer) based CDK12/CycK activity inhibition assay as described in the following paragraphs.
A complex of human recombinant CDK12 and human recombinant CycK (both N-terminally His-tagged, expression and purification as described above) was used as enzyme. As substrate for the kinase reaction biotinylated peptide biotin-Ahx-KFELLPTPPLSPSRRSGL (C-terminus in amid form) was used which can be purchased e.g. form the company Biosyntan (Berlin-Buch, Germany).
For the assay 50 nanoL of a 100 fold concentrated solution of the test compound in DMSO was pipetted into either a black low volume 384 well microtiter plate or a black 1536 well microtiter plate (both Greiner Bio-One, Frickenhausen, Germany), 2 microL of a solution of CDK12/CycK in aqueous assay buffer [25 millimol/L HEPES pH 7.5, 20 millimol/L MgCl2, 5 millimol/L β-glycerophosphate, 2 millimol/L EGTA, 1.0 millimol/L dithiothreitol, 0.01% (v/v) Nonidet-P40 (Sigma), 0.01% (w/v) bovine serum albumin] were added and the mixture was incubated for 15 min at 22° C. to allow pre-binding of the test compounds to the enzyme before the start of the kinase reaction. Then the kinase reaction was started by the addition of 3 microL of a solution ATP (3.33 millimol/L=>final conc. in the 5 microL assay volume is 2 millimol/L) and substrate (1.67 micromol/L=>final conc. in the 5 microL assay volume is 1 micromol/L) in assay buffer and the resulting mixture was incubated for a reaction time of 60 min at 22° C. The concentration of CDK12/CycK was adjusted depending of the activity of the enzyme lot and was chosen appropriate to have the assay in the linear range, typical concentrations were about 0.75 nanomol/L. The reaction was stopped by the addition of 3 microL of a solution of TR-FRET detection reagents (125 nanomol/L streptavidine-XL665 [Cisbio Bioassays, Codolet, France] and 0.67 nanomol/L anti-Phospho-c-Myc (Ser 62) (E1J4K)-antibody from Cell Signalling [#13748] and 2 nanomol/L LANCE EU-W1024 labeled anti-rabbit IgG antibody [Perkin-Elmer, product no. 0083]) in an aqueous EDTA-solution (133 millimol/L EDTA, 0.27% (w/v) bovine serum albumin in 66.7 millimol/L HEPES pH 7.5).
The resulting mixture was incubated 1 h at 22° C. to allow the formation of complex between the phosphorylated biotinylated peptide and the detection reagents. Subsequently the amount of phosphorylated substrate was evaluated by measurement of the resonance energy transfer from the Eu-chelate to the streptavidine-XL. Therefore, the fluorescence emissions at 620 nm and 665 nm after excitation at 350 nm was measured in a TR-FRET reader, e.g. a Pherastar FS (BMG Labtechnologies, Offenburg, Germany) or a Viewlux (Perkin-Elmer). The ratio of the emissions at 665 nm and at […] was taken as the measure for the amount of phosphorylated substrate. The data were normalised (enzyme reaction without inhibitor=0% inhibition, all other assay components but no enzyme=100% inhibition).

[2] = tested on: CAL-120 human breast adenocarcinoma cells; assay: Proliferation assay CAL-120 (crystal violet); assay type: cell-based; conditions: Homo sapiens, CAL-120, 96 h, CAL-120 cells, 4 days, median, read-out: Prolif-CAL-120— IC50 - [mol/l] (median)
Experimental: 4. Proliferation assay: MDA-MB-231, CAL-120
Human tumour cells were originally obtained from the American Type Culture Collection (ATCC), or from the Deutsche Sammlung von Mikroorganismen and Zellkulturen (DSMZ, German Collection of Microorganisms and Cell Cultures). Cultivated tumour cells (CAL-120, human breast adenocarcinoma cells, DSMZ ACC-459; MDA-M B-231, human breast cancer cells, ATCC HTB-26) were plated at a density of 4,000 cells/well in a 96-well multititer plate in 200 microL of their respective growth medium supplemented 10% fetal calf serum. After 24 hours, the cells of one plate (zero-point plate) were stained with crystal violet (see below), while the medium of the other plates was supplemented with the test substances in various concentrations (0 micromol/L, as well as in the range of 0.01-10 micromol/L; the final concentration of the solvent dimethyl sulfoxide was adjusted to 0.1%) using a Tecan HP D300 Digital Dispenser. The cells were incubated for 4 days in the presence of test substances. Cell proliferation was determined by staining the cells with crystal violet: the cells were fixed by adding 20 microL/measuring point of an 11% glutaric aldehyde solution for 15 minutes at room temperature. After three washing cycles of the fixed cells with water, the plates were dried at room temperature. The cells were stained by adding 100 microL/measuring point of a 0.1% crystal violet solution (pH 3.0). After three washing cycles of the stained cells with water, the plates were dried at room temperature. The dye was dissolved by adding 100 microL/measuring point of a 10% acetic acid solution. The extinction was determined by photometry at a wavelength of 595 nm. The change of cell number, in percent, was calculated by normalization of the measured values to the extinction values of the zero-point plate(=0%) and the extinction of the untreated (0 μM) cells(=100%). The IC50 values (inhibitory concentration at 50% of maximal effect) were determined by means of a 4 parameter fit.

SMILES | IC50 [1] | IC50 [2]
COCCC(C)n1nc(NCc2nc3ccccc3[nH]2)c2ncc(C3CC3)nc21 (racemic) [Example 57, (±)-N-[(1H-benzimidazol-2-yl)methyl]-6-cyclopropyl-1-(4-methoxybutan-2-yl)-1H-pyrazolo[3,4-b]pyrazin-3-amine] | > 20 µM | 0.105 µM
O[C@H]1CC[C@H](n2nc(NCc3nc4ccccc4[nH]3)c3ncc(C4CC4)nc32)CC1 [Example 50, trans-4-(3-{[(1H-benzimidazol-2-yl)methyl]amino}-6-cyclopropyl-1H-pyrazolo[3,4-b]pyrazin-1-yl)cyclohexan-1-ol] | 6.17 µM | 0.011 µM
c1ccc2[nH]c(CNc3nn(C4COC4)c4nc(C5CC5)cnc34)nc2c1 [Example 55, N-[(1H-benzimidazol-2-yl)methyl]-6-cyclopropyl-1-(oxetan-3-yl)-1H-pyrazolo[3,4-b]pyrazin-3-amine] | > 20 µM | –
c1ccc2[nH]c(CNc3nn(C4C[C@H]5CC[C@@H](C4)O5)c4nc(C5CC5)cnc34)nc2c1 (stereo partly drawn) [Example 45, exo/endo-N-[(1H-benzimidazol-2-yl)methyl]-6-cyclopropyl-1-(8-oxabicyclo[3.2.1]octan-3-yl)-1H-pyrazolo[3,4-b]pyrazin-3-amine] | – | 0.00986 µM
CC1(C)CC(n2nc(NCc3nc4ccccc4[nH]3)c3ncc(C4CC4)nc32)CC(C)(C)O1 [Example 52, N-[(1H-benzimidazol-2-yl)methyl]-6-cyclopropyl-1-(2,2,6,6-tetramethyloxan-4-yl)-1H-pyrazolo[3,4-b]pyrazin-3-amine] | > 20 µM | –
O[C@H]1C[C@H](n2nc(NCc3nc4ccccc4[nH]3)c3ncc(C4CC4)nc32)C1 [Example 43, trans-3-(3-{[(1H-benzimidazol-2-yl)methyl]amino}-6-cyclopropyl-1H-pyrazolo[3,4-b]pyrazin-1-yl)cyclobutan-1-ol] | – | 0.0419 µM
CC1CC(n2nc(NCc3nc4ccccc4[nH]3)c3ncc(C4CC4)nc32)CCO1 (racemic) [Example 44, (±)-cis/trans-N-[(1H-benzimidazol-2-yl)methyl]-6-cyclopropyl-1-(2-methyloxan-4-yl)-1H-pyrazolo[3,4-b]pyrazin-3-amine] | – | 0.0235 µM
c1ccc2[nH]c(CNc3nn(C4CC5(COC5)C4)c4nc(C5CC5)cnc34)nc2c1 [Example 54, N-[(1H-benzimidazol-2-yl)methyl]-6-cyclopropyl-1-(2-oxaspiro[3.3]heptan-6-yl)-1H-pyrazolo[3,4-b]pyrazin-3-amine] | 11.1 µM | –
O[C@H]1CC[C@H](n2nc(NCc3nc4cc(F)ccc4[nH]3)c3ncc(C4CC4)nc32)CC1 [Example 56, trans-4-(6-cyclopropyl-3-{[(5-fluoro-1H-benzimidazol-2-yl)methyl]amino}-1H-pyrazolo[3,4-b]pyrazin-1-yl)cyclohexan-1-ol] | > 18.1 µM | –
O[C@H]1CC[C@@H](n2nc(NCc3nc4ccccc4[nH]3)c3ncc(C4CC4)nc32)CC1 [Example 51, cis-4-(3-{[(1H-benzimidazol-2-yl)methyl]amino}-6-cyclopropyl-1H-pyrazolo[3,4-b]pyrazin-1-yl)cyclohexan-1-ol] | > 20 µM | –
Cc1ccc2[nH]c(CNc3nn(C4CCN(C)CC4)c4nc(C5CC5)cnc34)nc2c1 [Example 6, 6-cyclopropyl-N-[(5-methyl-1H-benzimidazol-2-yl)methyl]-1-(1-methylpiperidin-4-yl)-1H-pyrazolo[3,4-b]pyrazin-3-amine] | > 20 µM | –
O=CO.c1ccc(-n2nc(NCc3nc4ccccc4[nH]3)c3ncc(C4CC4)nc32)cc1 [Example 13, formic acid—N-[(1H-benzimidazol-2-yl)methyl]-6-cyclopropyl-1-phenyl-1H-pyrazolo[3,4-b]pyrazin-3-amine (1/1)] | > 20 µM | –
Cn1nc(NCc2nc3ccccc3[nH]2)c2ncc(C3CC3)nc21 [Example 15, N-[(1H-benzimidazol-2-yl)methyl]-6-cyclopropyl-1-methyl-1H-pyrazolo[3,4-b]pyrazin-3-amine] | > 20 µM | –
